The values below come from patent publication EP0386076B1, “PHOSPHORYLED DERIVATIVES OF CARDIODILATINE/ANF PEPTIDES” (FORSSMANN, Wolf-Georg, Prof. Dr. med., priority 1987, dated 1993).

As usually defined, the Km is the substrate concentration at which the rate is half of its maximum.

The subject of experiment [1] is c-AMP-abhängiger Proteinkinase. The following applies: peptide as substrate of c-AMP-abhängiger Proteinkinase; read-out: Michaeliskonstante Km; cited from earlier work.
For experiment [2], the system named is Muskelstreifen von Kaninchenaorta. The experiment can be described thus: Relaxation of norepinephrine-precontracted rabbit aorta muscle strips in an organ bath. On the set-up: species or system Neuseeland-Kaninchen.
Text: Muskelstreifen von Kaninchenaorta wurden zunächst mit einer Lösung von Norepinephrin (10⁻⁷ M) kontrahiert. Nachdem sich konstante Bedingungen eingestellt hatten, wurden die Peptide hinzugefügt (Position des Pfeils).
Die Abbildung 6 zeigt die Reaktion von Kaninchenaorta-Muskelstreifen auf die schrittweise Zugabe von nicht phosphoryliertem, phosphoryliertem und danach wieder nicht phosphoryliertem Alpha-hANaP (CDD-28). Die Verbindungen wurden jeweils so zugegeben, daß sie im Untersuchungsbad in einer Endkonzentration von 0,3 x 10⁻⁹ M vorlagen.
Aortae von Neuseeland-Kaninchen wurden präpariert. Die Muskelspannung wurde an Muskelstreifen in einem Organbad, enthaltend physiologische Kochsalzlösung, gemessen. Die Streifen wurden vorkontrahiert mit einer Lösung von 10⁻⁶ M Norepinephrin, danach bei vollständiger Relaxation. Für den Assay wurde eine weitere Kontraktion mit 10⁻⁷ M Norepinephrin ausgelöst. Nachdem konstante Kontraktionsbedingungen erreicht waren, wurden die Peptide appliziert.
Zur Kontrolle wurde nicht phosphoryliertes Alpha-hANaP unter gleichen Bedingungen inkubiert, jedoch ohne Anwesenheit von ATP. Phosphoryliertes und nicht phosphoryliertes Alpha-hANaP wurde zu den vorkontrahierten Kaninchenaorta-Muskelstreifen gegeben, so daß sie in einer Endkonzentration von 0,3 x 10⁻⁹ M vorlagen. […]

Ends that are not written are not given here.

Turning to Arg¹⁰¹-Tyr¹²⁶, in experiment [1], the Km was 0.5 µM.

On to “phosphorylierte CDD-32: CDD-32 (Urodilatin, ANF/CDD-95-126) phosphorylated according to Beispiel 1; Formel I with R = Aminosäuren 95-98 (TAPRSLRRSSCFGGRMDRIGAQSGLGCNSFRY; ends and bridges not checked; also: phosphorylated (phosphate group), site not given here; UniProt P01160 120-151, looked up, fragment)”, for which, in experiment [2] (Abbildung 7, phosphorylated versus non-phosphorylated form at corresponding concentration), the “relatives Relaxationsvermögen” value is given as “deutlich geringeres Relaxationsvermögen”. Besides, the Relaxationsaktivität entry in experiment [2] (Beispiel 6, tested analogously to Beispiel 5, several concentrations) is reported as “deutlich geringere Relaxation”.
